Test [1] concerns the target T1, hTLR8 (human Toll-like receptor 8) (Homo sapiens, UniProt Q9NR97).
T1 construct: host or cells: HEK-Blue hTLR8 (HEK293-derived reporter cells)
T1 sequence (Q9NR97 27-1041): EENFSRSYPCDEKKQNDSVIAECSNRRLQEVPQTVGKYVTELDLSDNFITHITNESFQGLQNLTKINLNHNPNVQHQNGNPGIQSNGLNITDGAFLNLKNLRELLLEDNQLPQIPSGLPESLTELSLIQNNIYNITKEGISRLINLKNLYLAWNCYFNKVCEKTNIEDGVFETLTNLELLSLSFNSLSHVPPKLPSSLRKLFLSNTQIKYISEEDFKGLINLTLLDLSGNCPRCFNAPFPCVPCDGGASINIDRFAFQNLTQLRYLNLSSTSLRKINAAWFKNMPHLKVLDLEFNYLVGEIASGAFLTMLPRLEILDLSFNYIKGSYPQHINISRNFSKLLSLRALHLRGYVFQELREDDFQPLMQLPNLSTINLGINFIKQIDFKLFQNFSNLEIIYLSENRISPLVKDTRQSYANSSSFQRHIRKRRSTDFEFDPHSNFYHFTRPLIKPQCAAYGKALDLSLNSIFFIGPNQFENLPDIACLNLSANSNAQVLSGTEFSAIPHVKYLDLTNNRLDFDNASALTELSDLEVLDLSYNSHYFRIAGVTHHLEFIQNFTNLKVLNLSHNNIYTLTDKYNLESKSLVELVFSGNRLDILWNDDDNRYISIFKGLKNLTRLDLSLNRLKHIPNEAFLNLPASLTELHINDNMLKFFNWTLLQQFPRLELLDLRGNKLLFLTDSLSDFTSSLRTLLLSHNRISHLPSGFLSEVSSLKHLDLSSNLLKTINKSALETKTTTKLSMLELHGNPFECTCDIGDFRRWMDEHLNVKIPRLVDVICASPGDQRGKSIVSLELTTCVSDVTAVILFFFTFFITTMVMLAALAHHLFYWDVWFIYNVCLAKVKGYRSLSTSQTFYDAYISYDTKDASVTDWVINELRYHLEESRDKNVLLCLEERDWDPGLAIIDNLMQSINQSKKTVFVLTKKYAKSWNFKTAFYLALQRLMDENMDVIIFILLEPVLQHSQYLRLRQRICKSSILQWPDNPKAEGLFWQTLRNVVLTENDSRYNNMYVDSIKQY
Briefly: hTLR8 cell assay (HEK-Blue hTLR8 reporter cells). The format is cell-based. Particulars: 24 hours, OD 650 nm. Here is the method: (§1) The payload compounds of Formula (II′) were assayed to evaluate their agonistic activity on hTLR7 (human Toll-like receptor 7) and hTLR8 (human Toll-like receptor 8). Reporter cells lines (HEK-Blue hTLR7 and HEK-Blue hTLR8) were obtained from InvivoGen. Cells were cryopreserved in liquid nitrogen per supplier's instruction. Upon test, the cells were thawed, passaged and cultured in the growth media of DMEM supplemented with 10% fetal bovine serum, 1×NEAA, 1 mM Pyruvate, 2 mM glutamine, […] in the presence of the following antibiotics, as shown as Table 1. Test compounds (at desired concentrations diluted) were added to the 96-well assay plate, 0.5 μL per well. Reporter cells were harvested from the tissue culture flasks by incubation in PBS at 37° C. for two minutes after the media in the flask is removed and cells rinsed with PBS. Cells were counted and diluted in the HEK-Blue Detection media at 50000 cells/mL and incubated for 24 hours at 37° C., in a 5% CO2 humidified incubator. Then 20 μL of cell supernatant were added to the assay plate containing the 180 µL of QUANTI-Blue, incubated for 1 hour at 37° C. Optical density at 650 nm was analyzed using an Envision (Perkin Elmer) plate reader.

Test [2] addresses T2, hTLR7 (human Toll-like receptor 7) (Homo sapiens, UniProt Q9NYK1).
T2 construct: host or cells: HEK-Blue hTLR7 (HEK293-derived reporter cells)
T2 sequence (Q9NYK1 27-1049): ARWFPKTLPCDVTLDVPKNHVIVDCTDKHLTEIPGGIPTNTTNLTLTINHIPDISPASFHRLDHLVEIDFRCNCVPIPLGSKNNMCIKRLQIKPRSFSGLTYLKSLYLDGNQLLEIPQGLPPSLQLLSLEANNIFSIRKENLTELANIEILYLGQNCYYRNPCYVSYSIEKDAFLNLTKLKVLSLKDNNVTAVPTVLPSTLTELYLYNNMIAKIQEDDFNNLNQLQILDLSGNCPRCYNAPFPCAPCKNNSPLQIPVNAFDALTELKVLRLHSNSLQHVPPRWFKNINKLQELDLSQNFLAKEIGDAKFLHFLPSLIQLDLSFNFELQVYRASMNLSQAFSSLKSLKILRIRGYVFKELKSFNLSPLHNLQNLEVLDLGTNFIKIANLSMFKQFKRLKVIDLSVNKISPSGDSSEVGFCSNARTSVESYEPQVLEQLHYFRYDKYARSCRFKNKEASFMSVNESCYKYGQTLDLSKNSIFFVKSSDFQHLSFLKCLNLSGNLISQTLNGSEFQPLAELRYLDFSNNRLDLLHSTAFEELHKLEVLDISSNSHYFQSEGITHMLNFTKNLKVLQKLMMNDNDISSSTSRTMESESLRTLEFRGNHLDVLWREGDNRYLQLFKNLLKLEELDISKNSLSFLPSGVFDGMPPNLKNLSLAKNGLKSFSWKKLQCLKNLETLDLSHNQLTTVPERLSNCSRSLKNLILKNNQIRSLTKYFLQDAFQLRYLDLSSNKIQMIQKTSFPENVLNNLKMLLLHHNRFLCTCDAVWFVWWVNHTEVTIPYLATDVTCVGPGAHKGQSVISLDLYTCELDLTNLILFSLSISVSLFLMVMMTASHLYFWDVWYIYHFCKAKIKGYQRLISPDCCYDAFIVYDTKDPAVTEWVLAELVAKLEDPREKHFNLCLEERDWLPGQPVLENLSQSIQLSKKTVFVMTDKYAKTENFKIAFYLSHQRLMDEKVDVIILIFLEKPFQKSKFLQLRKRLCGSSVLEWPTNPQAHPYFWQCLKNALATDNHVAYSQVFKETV
Kind of test: hTLR7 cell assay (HEK-Blue hTLR7 reporter cells). The format is cell-based. The note with it: 24 hours, OD 650 nm. The protocol: as §1

Structures are written as SMILES. pEC50: −log10 of the molar value.

With `CCOCc1nc2c(N)nc3cc(Cc4ccc(CCN)cc4)ccc3c2n1CC(C)(C)OCCNC(=O)C(C)C` [Compound 22, N-(2-((1-(4-amino-7-(4-(2-aminoethyl)benzyl)-2-(ethoxymethyl)-1H-imidazo[4,5-c]quinolin-1-yl)-2-methylpropan-2-yl)oxy)ethyl)isobutyramide], the pEC50 in test [1] is below 4.70; in test [2], 5.00 to 6.00.
In the same order, the values of `CCOCc1nc2c(N)nc3cc(Cc4ccc(CCN(C)C)cc4)ccc3c2n1CC(C)(C)OCCN` [Compound 24, 1-(2-(2-aminoethoxy)-2-methylpropyl)-7-(4-(2-(dimethylamino)ethyl)benzyl)-2-(ethoxymethyl)-1H-imidazo[4,5-c]quinolin-4-amine] are below 4.70 and below 5.00.
The matching figures for `CCOCc1nc2c(N)nc3cc(Cc4ccc(CCN5CCCC5)cc4)ccc3c2n1CC(C)(C)OCCN` [Compound 25, 1-(2-(2-aminoethoxy)-2-methylpropyl)-2-(ethoxymethyl)-7-(4-(2-(pyrrolidin-1-yl)ethyl)benzyl)-1H-imidazo[4,5-c]quinolin-4-amine]: below 4.70 and below 5.00.
The matching figures for `CCOCc1nc2c(N)nc3cc(Cc4ccc(CCN)cc4)ccc3c2n1CC(C)(C)OCCN1CCCC1` [Compound 26, 7-(4-(2-aminoethyl)benzyl)-2-(ethoxymethyl)-1-(2-methyl-2-(2-(pyrrolidin-1-yl)ethoxy)propyl)-1H-imidazo[4,5-c]quinolin-4-amine]: below 4.70 and 5.00 to 6.00.
Take `CCOCc1nc2c(N)nc3cc(Cc4ccc(CC(N)=O)cc4)ccc3c2n1CC(C)(C)OCCN` [Compound 27, 2-[4-({4-amino-1-[2-(2-aminoethoxy)-2-methylpropyl]-2-(ethoxymethyl)imidazo[4,5-c]quinolin-7-yl}methyl)phenyl]acetamide]: the values for the pEC50 in test [1] and in test [2] were below 4.70 and 5.00 to 6.00, respectively.
In the same order, the values of `CCC[C@H](C)c1nc2c(N)nc3cc(Cc4ccccc4)ccc3c2n1CC(C)(C)OCCN` [Compound 29, (S)-1-(2-(2-aminoethoxy)-2-methylpropyl)-7-benzyl-2-(pentan-2-yl)-1H-imidazo[4,5-c]quinolin-4-amine] are below 4.70 and below 5.00.
As to `CCCCc1nc2c(N)nc3cc(Cc4ccccc4)ccc3c2n1CC(C)(C)OCCN` [Compound 31], the negative-log EC50 (pEC50) in test [1] is above 5.30; in test [2], above 6.00.
Regarding `CCOCc1nc2c(N)nc3cc(Cc4ccccc4)ccc3c2n1CC(C)(C)OCCCN` [Compound 33], the pEC50 in test [1] was 4.70 to 5.30; in test [2] it was 5.00 to 6.00.
In the same order, the values of `CCOCc1nc2c(N)nc3cc(Cc4ccc(CCN)cc4)ccc3c2n1CCNS(C)(=O)=O` [Compound 34, N-(2-(4-amino-7-(4-(2-aminoethyl)benzyl)-2-(ethoxymethyl)-1H-imidazo[4,5-c]quinolin-1-yl)ethyl)methanesulfonamide] are below 4.70 and below 5.00.
As for `CCOCc1nc2c(N)nc3cc(Cc4ccc(CC(N)=O)cc4)ccc3c2n1CCNS(C)(=O)=O` [Compound 35, 2-(4-((4-amino-2-(ethoxymethyl)-1-(2-(methylsulfonamido)ethyl)-1H-imidazo[4,5-c]quinolin-7-yl)methyl)phenyl)acetamide], the pEC50 in test [1] is below 4.70; in test [2], 5.00 to 6.00.
On to `CCOCc1nc2c(N)nc3cc(Cc4ccccc4)ccc3c2n1CC(C)(C)NCCCN` [Compound 36, NJ-(1-(4-amino-7-benzyl-2-(ethoxymethyl)-1H-imidazo[4,5-c]quinolin-1-yl)-2-methylpropan-2-yl)propane-1,3-diamine], for which the figures for the pEC50 in test [1] and in test [2] were below 4.70 and below 5.00, respectively.
In the case of `CCOCc1nc2c(N)nc3cc(Cc4ccccc4)ccc3c2n1CC(C)(C)NCCN` [Compound 37, N1-(1-(4-amino-7-benzyl-2-(ethoxymethyl)-1H-imidazo[4,5-c]quinolin-1-yl)-2-methylpropan-2-yl)ethane-1,2-diamine], the pEC50 was below 4.70 in test [1] and below 5.00 in test [2].

A word on the pEC50: it is −log10 of the EC50, conventionally taken in molar units. Read a low pEC50 as a high EC50.

The values are drawn from patent publication US20250325687A1, “CONJUGATE COMPRISING TOLL-LIKE RECEPTOR AGONIST” (MABSOFT THERAPEUTICS (SHANGHAI) CO., LTD., priority 2022, published 2025).
